One assay deals with T1, TANK-2 enzyme (Homo sapiens, UniProt Q9H2K2).
T1 construct: made in house
T1 sequence (Q9H2K2 1-1166): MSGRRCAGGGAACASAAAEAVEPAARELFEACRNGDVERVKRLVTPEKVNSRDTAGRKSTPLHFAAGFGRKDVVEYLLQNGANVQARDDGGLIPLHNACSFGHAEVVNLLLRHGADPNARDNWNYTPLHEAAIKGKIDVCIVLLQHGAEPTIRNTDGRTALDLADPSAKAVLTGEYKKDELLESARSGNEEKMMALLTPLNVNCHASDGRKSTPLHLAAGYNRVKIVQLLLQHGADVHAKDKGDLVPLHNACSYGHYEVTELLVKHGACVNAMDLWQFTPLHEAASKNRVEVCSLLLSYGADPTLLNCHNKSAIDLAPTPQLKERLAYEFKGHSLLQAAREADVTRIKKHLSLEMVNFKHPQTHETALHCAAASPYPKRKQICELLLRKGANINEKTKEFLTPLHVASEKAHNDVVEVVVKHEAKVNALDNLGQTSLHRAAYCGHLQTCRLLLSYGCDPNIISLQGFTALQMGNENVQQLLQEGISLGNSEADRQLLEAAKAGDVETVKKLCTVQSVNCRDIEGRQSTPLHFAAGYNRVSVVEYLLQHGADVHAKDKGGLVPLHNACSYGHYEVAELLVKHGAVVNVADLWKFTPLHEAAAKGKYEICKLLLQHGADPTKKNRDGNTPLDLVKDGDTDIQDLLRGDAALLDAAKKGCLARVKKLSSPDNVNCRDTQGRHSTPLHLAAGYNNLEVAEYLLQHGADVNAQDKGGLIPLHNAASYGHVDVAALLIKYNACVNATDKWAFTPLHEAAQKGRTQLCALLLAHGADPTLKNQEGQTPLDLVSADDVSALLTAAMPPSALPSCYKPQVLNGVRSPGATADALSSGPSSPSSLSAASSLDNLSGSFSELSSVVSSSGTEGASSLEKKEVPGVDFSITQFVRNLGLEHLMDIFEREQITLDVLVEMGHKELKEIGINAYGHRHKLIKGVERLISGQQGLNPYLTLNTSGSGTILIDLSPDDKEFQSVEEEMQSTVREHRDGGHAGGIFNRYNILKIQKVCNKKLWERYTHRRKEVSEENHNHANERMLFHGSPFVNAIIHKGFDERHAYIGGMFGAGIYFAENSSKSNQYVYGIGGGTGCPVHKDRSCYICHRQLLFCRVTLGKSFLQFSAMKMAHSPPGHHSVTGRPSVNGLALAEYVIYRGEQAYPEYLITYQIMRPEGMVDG
The experiment in a line: In vitro scintillation proximity assay (SPA) for TANK-2 inhibitory activity. The following applies: auto-poly(ADP-ribosyl)ation, Ni flash plates; 96-well results if available, otherwise 384-well; tested between 10^-5 M and 3x10^-8 M; read-out: in vitro SPA assay TANK-2 pIC50 (converted). Type of assay: biochemical. On the procedure:
C.2. In Vitro Scintillation Proximity Assay (SPA) for TANK-2 Inhibitory Activity
Compounds of the present invention were tested in an in vitro assay based on SPA technology with Ni Flash plates (96 or 384 well).
In principle, the assay relies upon SPA technology for the detection of auto-poly(ADP-ribosyl)ation of TANK-2 protein using [^3H]-nicotinamide adenine dinucleotide ([^3H]-NAD^+) as ADP-ribosyl donor.
A stock solution of 100 nM [^3H]-NAD^+/NAD (0.1 mCi/ml, supplier: Perkin Elmer) and 0.25 mM NAD (Sigma) was made in assay buffer (60 mM Tris/HCl, pH 7.4; 0.9 mM DTT; 6 mM MgCl2). The TANK-2 enzyme was produced as described in EP1238063. 60 μl of assay buffer, together with 1 μl of compound in DMSO, 20 μl of [^3H]-NAD^+/NAD and 20 μl of TANK-2 enzyme (final concentration 8 μg/ml) was added per well into a 96-well Ni-coated flash plate (Perkin Elmer). After incubation of the mixture for 120 min. at room temperature, the reaction was terminated by adding 60 μl of stopsolution (42.6 mg NAD in 6 ml H2O). The plates were covered with a plate sealer and placed in a TopCountNX™ (Packard) for scintillation counting. Values were expressed as counts per minute (cpm). For each experiment, controls (containing TANK-2 enzyme and DMSO without compound), a blank incubation (containing DMSO but no TANK-2 enzyme or compound) and samples (containing TANK-2 enzyme and compound dissolved in DMSO) were run in parallel. All compounds tested were dissolved and eventually further diluted in DMSO. […] In each test, the blank value was subtracted from both the control and the sample values. The control sample represented maximal TANK-2 enzyme activity. For each sample, the amount of cpm was expressed as a percentage of the mean cpm value of the controls. When appropriate, IC50-values (concentration of the drug, needed to reduce the TANK-2 enzyme activity to 50% of the control) were computed using linear interpolation between the experimental points just above and below the 50% level. Herein the effects of test compounds are expressed as pIC50 (the negative log value of the IC50-value). As reference compounds, 3-aminobenzamide and 4-amino-1,8-naphtalimide were included to validate the SPA assay. Herein the assay was described using 96-well plates. In the assay using 384-well plates the same final concentrations were used and volumes were adapted.

Another assay has as its target T2, Human PARP-1 enzyme (Homo sapiens, UniProt P09874).
T2 construct: purchased Trevigen
The experiment in a line: In vitro scintillation proximity assay (SPA) for PARP-1 inhibitory activity. The following applies: nicked DNA activated PARP-1, [3H]-NAD+, biotinylated histones; tested between 10^-5 M and 3x10^-9 M; read-out: in vitro SPA assay PARP-1 pIC50 (converted). Type of assay: biochemical. On the procedure: C.1. In Vitro Scintillation Proximity Assay (SPA) for PARP-1 Inhibitory Activity
Compounds of the present invention were tested in an in vitro assay based on SPA technology (proprietary to GE healthcare).
In principle, the assay relies upon the well established SPA technology for the detection of poly(ADP-ribosyl)ation of biotinylated target proteins, i.e histones. This ribosylation is induced using nicked DNA activated PARP-1 enzyme and [^3H]-nicotinamide adenine dinucleotide ([^3H]-NAD^+) as ADP-ribosyl donor.
Histones (type II-A, supplier: Sigma) were biotinylated using the biotinylation kit of Amersham and stored aliquoted at −20° C. A stock solution of 100 mg/ml SPA poly(vinyl toluene) (PVT) beads (supplier: Amersham) was made in PBS. A stock solution of 61.6 nM [^3H]-NAD^+ was made by adding [^3H]-NAD^+ (0.1 mCi/ml, supplier: Perkin Elmer) to incubation buffer (50 mM Tris/HCl, pH 8; 0.2 mM DTT; 4 mM MgCl2). A solution of 4 mM NAD^+ (supplier: Sigma) was made. Human PARP-1 enzyme was obtained from Trevigen. Biotinylated histones and PVT-SPA beads were mixed and pre-incubated for 30 min. at room temperature. PARP-1 enzyme (concentration was lot dependent) was mixed with the nicked DNA and the mixture was pre-incubated for 30 min. at 4° C. Equal parts of this histones/PVT-SPA beads solution and PARP-1 enzyme/DNA solution were mixed and 75 μl of this mixture together with 1 μl of compound in DMSO and 25 μl of [^3H]-NAD^+ was added per well into a 96-well microtiterplate. The final concentrations in the incubation mixture were 2 μg/ml for the biotinylated histones, 2 mg/ml for the PVT-SPA beads, 0.25 μg/ml for the nicked DNA and between 0.1-0.2 μg/ml for the PARP-1 enzyme. After incubation of the mixture for 20 min. at room temperature, the reaction was terminated by adding 100 μl of 4 mM NAD^+ in water (final concentration 2 mM) and plates were mixed. The beads were sedimented by centrifugation (10 min, 800 rpm). and plates transferred to a TopCountNXT™ (Packard) for scintillation counting, values were expressed as counts per minute (cpm). For each experiment, controls (containing PARP-1 enzyme and DMSO without compound), a blank incubation (containing DMSO but no PARP-1 enzyme, no DNA or compound) and samples (containing PARP-1 enzyme, DNA and compound dissolved in DMSO) were run in parallel. All compounds tested were dissolved and eventually further diluted in DMSO. A dose-response curve was made wherein the compounds were tested at concentrations between 10^−5M and 3×10^−9M. In each test, the blank value was subtracted from both the control and the sample values. The control sample represented maximal PARP-1 enzyme activity. For each sample, the amount of cpm was expressed as a percentage of the mean cpm value of the controls. When appropriate, IC50-values (concentration of the drug, needed to reduce the PARP-1 enzyme activity to 50% of the control) were computed using linear interpolation between the experimental points just above and below the 50% level. Herein the effects of test compounds are expressed as pIC50 (the negative log value of the IC50-value). As a reference compound, 4-amino-1,8-naphthalimide was included to validate the SPA assay.

T2 sequence (P09874 whole entry): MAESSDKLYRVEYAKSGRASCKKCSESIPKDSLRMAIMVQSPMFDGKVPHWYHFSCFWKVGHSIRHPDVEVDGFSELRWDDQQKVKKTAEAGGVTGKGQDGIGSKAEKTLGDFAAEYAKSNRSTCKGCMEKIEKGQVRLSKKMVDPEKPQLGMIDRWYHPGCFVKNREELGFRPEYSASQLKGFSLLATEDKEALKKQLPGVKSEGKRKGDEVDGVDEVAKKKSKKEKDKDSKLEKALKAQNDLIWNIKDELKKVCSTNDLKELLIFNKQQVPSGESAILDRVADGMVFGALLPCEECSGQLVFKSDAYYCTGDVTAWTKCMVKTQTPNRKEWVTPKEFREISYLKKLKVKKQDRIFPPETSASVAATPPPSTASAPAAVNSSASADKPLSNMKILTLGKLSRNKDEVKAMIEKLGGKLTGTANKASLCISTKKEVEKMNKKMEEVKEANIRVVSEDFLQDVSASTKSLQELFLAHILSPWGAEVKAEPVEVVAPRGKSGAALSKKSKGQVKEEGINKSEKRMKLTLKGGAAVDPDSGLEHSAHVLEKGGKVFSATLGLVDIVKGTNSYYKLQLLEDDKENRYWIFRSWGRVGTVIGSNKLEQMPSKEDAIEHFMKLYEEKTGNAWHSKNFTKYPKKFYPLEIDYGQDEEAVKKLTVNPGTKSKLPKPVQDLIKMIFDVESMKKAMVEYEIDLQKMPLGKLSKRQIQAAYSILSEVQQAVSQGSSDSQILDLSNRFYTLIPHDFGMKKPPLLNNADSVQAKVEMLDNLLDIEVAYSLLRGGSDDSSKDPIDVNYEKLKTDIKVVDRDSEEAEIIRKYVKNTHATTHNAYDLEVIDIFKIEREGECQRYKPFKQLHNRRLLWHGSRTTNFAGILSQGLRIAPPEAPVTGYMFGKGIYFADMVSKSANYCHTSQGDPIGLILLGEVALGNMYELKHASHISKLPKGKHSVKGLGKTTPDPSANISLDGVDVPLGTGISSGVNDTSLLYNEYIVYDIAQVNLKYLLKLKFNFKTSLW

Take `CCc1cc2ccc(CN3CCN(c4ccc(Cl)c(Cl)c4)CC3)cc2[nH]c1=O` [Compound 43]: the IC50 at TANK-2 enzyme is 1720 nM; on Human PARP-1 enzyme, 2.58 nM.
`CCc1cc2ccc(CN3CCN(CCc4ccccc4)CC3)cc2[nH]c1=O` [Compound 44]: the IC50 is 2190 nM at TANK-2 enzyme and 6.9 nM on Human PARP-1 enzyme.
Regarding `CCc1cc2ccc(CN3CCN(c4cccc(Cl)c4)CC3)cc2[nH]c1=O` [Compound 45], the figures for the IC50 on TANK-2 enzyme and on Human PARP-1 enzyme were 1710 nM and 16.3 nM, respectively.
Consider `CCc1cc2ccc(CNCCCc3ccccc3)cc2[nH]c1=O` [Compound 46], for which the IC50 at TANK-2 enzyme is 5380 nM; on Human PARP-1 enzyme, 9.48 nM.
On to `CCc1cc2ccc(CNCc3ccncc3)cc2[nH]c1=O` [Compound 47], for which the IC50 was 144 nM on TANK-2 enzyme and 124 nM at Human PARP-1 enzyme.
Taken in the same sequence, the figures for `CCc1cc2ccc(CNCc3ccc(F)cc3)cc2[nH]c1=O` [Compound 48] were 254 nM and 24.4 nM.
Consider `CCc1cc2ccc(CNCc3ccccc3)cc2[nH]c1=O` [Compound 49], for which the IC50 on TANK-2 enzyme is 155 nM; at Human PARP-1 enzyme, 42.9 nM.
For the compound `Cc1cc2ccc(C(C)N3CCC(c4ccc(Cl)cc4)CC3)cc2[nH]c1=O` (centres unmarked) [Compound 50], the IC50 at TANK-2 enzyme was 2800 nM; on Human PARP-1 enzyme, 1.5 nM.
`Cc1cc2ccc(C(C)N3CC=C(c4ccccc4)CC3)cc2[nH]c1=O` (centres unmarked) [Compound 51]: the IC50 was 1280 nM at TANK-2 enzyme and 1.49 nM on Human PARP-1 enzyme.
For the compound `Cc1cc2ccc(C(C)N3CCN(c4ccc(F)cc4F)CC3)cc2[nH]c1=O` (centres unmarked) [Compound 52], the figures for the IC50 at TANK-2 enzyme and on Human PARP-1 enzyme were 2420 nM and 1.42 nM, respectively.
Taken in the same sequence, the figures for `Cc1cc2ccc(C(C)N3CCCCC3)cc2[nH]c1=O` (centres unmarked) [Compound 53] were > 10000 nM and 49.8 nM.
`Cc1cc2ccc(C(C)N3CCN(C4CCCCC4)CC3)cc2[nH]c1=O` (centres unmarked) [Compound 54]: the values for the IC50 on TANK-2 enzyme and at Human PARP-1 enzyme were > 10000 nM and 61.4 nM, respectively.
As to `COCCNC1CCN(C(C)c2ccc3cc(C)c(=O)[nH]c3c2)CC1` (centres unmarked) [Compound 55], the IC50 is > 10000 nM on TANK-2 enzyme and 92 nM at Human PARP-1 enzyme.
For the compound `Cc1cc2ccc(C(C)N3CCN(c4ncccc4C(F)(F)F)CC3)cc2[nH]c1=O` (centres unmarked) [Compound 56], the figures for the IC50 on TANK-2 enzyme and at Human PARP-1 enzyme were 1920 nM and 225 nM, respectively.
Taken in the same sequence, the figures for `Cc1cc2ccc(CN3CCN(c4ccccn4)CC3)cc2[nH]c1=O` [Compound 57] were 4220 nM and 1.48 nM.
For `Cc1cc2ccc(C(C)N3CCN(c4cccc(Cl)c4)CC3)cc2[nH]c1=O` (centres unmarked) [Compound 58] the same measures were 2320 nM and 95.9 nM.
Take `Cc1cc2ccc(C(=O)N3CC=C(c4ccccc4)CC3)cc2[nH]c1=O` [Compound 59]: the IC50 was 818 nM at TANK-2 enzyme and 129 nM on Human PARP-1 enzyme.
For `Cc1cc2ccc(C(=O)N3CCN(c4ccccc4Cl)CC3)cc2[nH]c1=O` [Compound 60] the same measures were > 10000 nM and 116 nM.
For the compound `CCc1cc2ccc(CN3CCCC3)cc2[nH]c1=O` [Compound 61], the IC50 is 4220 nM on TANK-2 enzyme and 5.36 nM on Human PARP-1 enzyme.
As for `CCc1cc2ccc(CN3CCN(c4ncc(C(=O)NCCO)cn4)CC3)cc2[nH]c1=O` [Compound 62], the IC50 is 33 nM at TANK-2 enzyme and 8.95 nM on Human PARP-1 enzyme.
Take `CCc1cc2ccc(CN3Cc4ccccc4C3)cc2[nH]c1=O` [Compound 63]: the IC50 on TANK-2 enzyme was 455 nM; at Human PARP-1 enzyme, 39.2 nM.
`Cc1cc2ccc(C(C3CCCCC3)N3CCC(c4ccccc4)CC3)cc2[nH]c1=O` (centres unmarked) [Compound 65]: the IC50 is > 10000 nM at TANK-2 enzyme and 4070 nM at Human PARP-1 enzyme.
For `Cc1cc2ccc(C(C(C)C)N3CCN(c4ccc(C#N)cn4)CC3)cc2[nH]c1=O` (centres unmarked) [Compound 66] the same measures were 1230 nM and 195 nM.
In the case of `Cc1cc2ccc(C(C3CCCCC3)N3CCN(c4ccccc4C#N)CC3)cc2[nH]c1=O` (centres unmarked) [Compound 67], the values for the IC50 at TANK-2 enzyme and on Human PARP-1 enzyme were > 10000 nM and 708 nM, respectively.
Taken in the same sequence, the figures for `Cc1cc2ccc(C(C3CCCCC3)N3CCN(c4ccc(C#N)cn4)CC3)cc2[nH]c1=O` (centres unmarked) [Compound 70] were 1910 nM and 275 nM.
